For orientation: IC50 means the concentration that gives 50% inhibition. The Kd is the concentration at which binding is half-saturated. A low value points to higher affinity.

Our source for the IC50 and Kd values is patent US20120129811A1, “TRICYCLIC INHIBITORS OF PRO-MATRIX METALLOPROTEINASE ACTIVATION” (priority 2010, published 2012).

Assay [1] deals with T1, full-length proMMP9(1-707) activation by catalytic MMP3 (Homo sapiens, UniProt P14780, R574P).
T1 construct: made in house; host or cells: proMMP9: HEK293 (secreted); MMP3: E. coli
T1 sequence (P14780 20-707 R574P): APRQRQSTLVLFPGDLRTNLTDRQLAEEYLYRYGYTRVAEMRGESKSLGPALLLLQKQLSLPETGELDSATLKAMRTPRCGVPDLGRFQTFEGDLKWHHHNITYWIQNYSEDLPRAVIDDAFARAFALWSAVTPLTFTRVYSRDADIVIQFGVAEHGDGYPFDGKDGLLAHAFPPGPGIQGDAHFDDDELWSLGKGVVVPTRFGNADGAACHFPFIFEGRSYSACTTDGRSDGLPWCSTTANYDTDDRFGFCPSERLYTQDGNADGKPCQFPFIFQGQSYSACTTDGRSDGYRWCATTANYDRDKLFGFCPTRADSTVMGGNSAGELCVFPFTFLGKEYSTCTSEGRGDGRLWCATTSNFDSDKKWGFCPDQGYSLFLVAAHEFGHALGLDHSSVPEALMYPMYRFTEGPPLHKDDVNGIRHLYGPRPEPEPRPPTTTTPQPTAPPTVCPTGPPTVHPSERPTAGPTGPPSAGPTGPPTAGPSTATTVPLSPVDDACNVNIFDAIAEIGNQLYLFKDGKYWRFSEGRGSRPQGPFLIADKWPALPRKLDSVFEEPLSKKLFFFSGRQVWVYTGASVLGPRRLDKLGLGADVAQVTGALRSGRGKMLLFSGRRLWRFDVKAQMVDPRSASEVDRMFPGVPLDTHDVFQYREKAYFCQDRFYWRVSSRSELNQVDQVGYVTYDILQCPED
The experiment in a line: proMMP9/MMP3 P126 Activation Assay. Type of assay: biochemical. As to the method: proMMP9/MMP3 P126 Activation Assay
The reaction volume was 50 μL. […] Reactivity of residual MMP3 towards P-126 substrate was minimal under these conditions.

Assay [2] deals with T2, proMMP9(20-445;ΔFnII) (SEQ ID NO:6) (Homo sapiens, UniProt P14780, DEL216-390).
T2 construct: start methionine (N); made in house; host or cells: E. coli BL21(DE3) RIL
T2 sequence (P14780 with tags, fused parts or gaps DEL216-390): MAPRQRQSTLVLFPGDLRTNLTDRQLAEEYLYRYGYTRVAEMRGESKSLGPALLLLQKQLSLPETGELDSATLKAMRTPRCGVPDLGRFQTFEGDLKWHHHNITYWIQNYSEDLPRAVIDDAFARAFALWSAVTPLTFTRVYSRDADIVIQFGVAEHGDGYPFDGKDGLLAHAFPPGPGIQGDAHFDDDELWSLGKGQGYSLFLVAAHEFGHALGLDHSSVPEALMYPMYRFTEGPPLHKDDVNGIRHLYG
The experiment in a line: ThermoFluor binding assay with proMMP9(20-445;ΔFnII). In short, it runs like this:
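Protein thermal stability was measured with 2.8 μM proMMP9(20-445;ΔFnII) and 50 μM 1,8-ANS in 50 mM HEPES pH 7.0, 100 mM NaCl, 0.001% Tween-20, 2.5 mM MgCl2, 300 μM CaCl2, across serial compound dilutions. Samples were heated 40–90° C at 1° C/min with fluorescence read at 500 nm. Tm was fitted, and binding was derived from thermodynamic parameters obtained by DSC and ThermoFluor.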
On the technique in general: Differential scanning fluorimetry follows unfolding on heating by fluorescence.

In assay [3] the target is T3, proMMP9(67-444;ΔFnII) (SEQ ID NO:5) (Homo sapiens, UniProt P14780, DEL216-390).
T3 construct: start methionine (N); made in house; host or cells: E. coli BL21(DE3) RIL
T3 sequence (P14780 with tags, fused parts or gaps DEL216-390): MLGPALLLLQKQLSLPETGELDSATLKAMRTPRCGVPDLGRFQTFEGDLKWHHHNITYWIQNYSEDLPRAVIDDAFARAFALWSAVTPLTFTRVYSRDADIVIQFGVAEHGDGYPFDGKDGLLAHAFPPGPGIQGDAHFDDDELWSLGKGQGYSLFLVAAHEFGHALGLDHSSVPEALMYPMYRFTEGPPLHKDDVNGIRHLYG
The assay can be described thus: ThermoFluor binding assay with proMMP9(67-444;ΔFnII). In a few lines: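 Thermal shift of 3.5 μM proMMP9(67-444;ΔFnII), desalted beforehand, with 50 μM 1,8-ANS in 50 mM HEPES pH 7.0, 100 mM NaCl, 2.5 mM MgCl2, 300 μM CaCl2, 0.001% Tween-20. Heated 40–90 °C at 1 °C/min, fluorescence read at 500 nm; binding fitted from Tm shifts using DSC- and ThermoFluor-derived unfolding parameters.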

Where a name gives a salt, the structure may show the parent alone.

For `COc1ccc(Nc2nc3c(ccc4c3ncn4C)s2)c(OC)c1` [Example 78, (2,4-Dimethoxy-phenyl)-(6-methyl-6H-imidazo[4′,5′:3,4]-benzo[2,1-d]thiazol-2-yl)-amine.HCl], the IC50 in assay [1] came out at 4000 nM. The results for the Kd in assay [2] and in assay [3] were 10000 nM and 3400 nM, respectively.
Compound `COc1ccccc1Nc1nc2c(ccc3ncn(C)c32)s1` [Example 132, (2-Methoxy-phenyl)-(8-methyl-8H-imidazo[4′,5′:3,4]benzo[2,1-d]thiazol-2-yl)-amine.TFA] had an IC50 in assay [1] of 1400 nM. The figures for the Kd in assay [2] and in assay [3] were above 95000 nM and 26000 nM, respectively.
In the same order, the values of `CCOP(=O)(OCC)c1ccc(OC)c(Nc2nc3c(ccc4c3ncn4C)s2)c1` [Example 66, [4-Methoxy-3-(6-methyl-6H-imidazo[4′,5′:3,4]benzo[2,1-d]thiazol-2-ylamino)-phenyl]-phosphonic acid diethyl ester.HCl] are 2300 nM, 5900 nM and 1700 nM.
With `Cn1ncc2c3nc(Nc4cc(S(N)(=O)=O)ccc4OC(F)(F)F)sc3ccc21` [Example 101, 3-(6-Methyl-6H-3-thia-1,6,7-triaza-as-indacen-2-ylamino)-4-trifluoromethoxy-benzenesulfonamide.TFA], the 50% inhibitory concentration (IC50) in assay [1] is 760 nM. The dissociation constant (Kd) was 790 nM in assay [2] and 430 nM in assay [3].
The matching figures for `COc1c(F)cc(C(N)=O)cc1Nc1nc2c(ccc3c2ncn3C)s1` [Example 48, 3-Fluoro-4-methoxy-5-(6-methyl-6H-imidazo[4′,5′:3,4]benzo[2,1-d]thiazol-2-ylamino)-benzamide.HCl]: 360 nM, 1900 nM and 810 nM.
Compound `Cn1cnc2c3nc(Nc4ccccc4[N+](=O)[O-])sc3ccc21` [Example 77, (6-Methyl-6H-imidazo[4′,5′:3,4]-benzo[2,1-d]thiazol-2-yl)-(2-nitro-phenyl)-amine.HCl] displayed an IC50 in assay [1] of 1100 nM. Also, the Kd was 3200 nM in assay [2] and 2600 nM in assay [3].
As for `COc1ccncc1Nc1nc2c(ccc3nc(C)n(C)c32)s1` [Example 154, N-(4-Methoxypyridin-3-yl)-7,8-dimethyl-8H-imidazo[4′,5′:5,6]benzo[1,2-d]thiazol-2-amine.TFA], inhibition in assay [1] was half-maximal at 630 nM (IC50). For the same compound, the Kd was found to be 6600 nM in assay [2] and 1100 nM in assay [3].
In the same order, the values of `COc1ccc(C#N)cc1Nc1nc2c(ccc3c2cnn3C)s1` [Example 112, 4-Methoxy-3-(6-methyl-6H-3-thia-1,6,7-triaza-as-indacen-2-ylamino)-benzonitrile.TFA] are 160 nM, above 95000 nM and 7000 nM.
The matching figures for `COc1ccc(F)cc1Nc1nc2c(ccc3ncn(C)c32)s1` [Example 127, (5-Fluoro-2-methoxy-phenyl)-(8-methyl-8H-imidazo[4′,5′:3,4]benzo[2,1-d]thiazol 2-yl)-amine.TFA]: 270 nM, 4300 nM and 980 nM.
In the same order, the values of `COc1ccc(S(=O)(=O)N2CCOCC2)cc1Nc1nc2c(ccc3c2ncn3C)s1` [Example 81, [2-Methoxy-5-(morpholine-4-sulfonyl)-phenyl]-(6-methyl-6H-imidazo[4′,5′:3,4]benzo[2,1-d]thiazol-2-yl)-amine.HCl] are 750 nM, 5200 nM and 1200 nM.
On to `COc1ccc(S(C)(=O)=O)cc1Nc1nc2c(ccc3ncn(C)c32)s1` [Example 135, (5-Methanesulfonyl-2-methoxy-phenyl)-(8-methyl-8H-imidazo[4′,5′:3,4]benzo[2,1-d]thiazol-2-yl)-amine.TFA], for which the IC50 in assay [1] is 270 nM. Further, the Kd is above 95000 nM in assay [2] and 640 nM in assay [3].
In the same order, the values of `CCN(CC)S(=O)(=O)c1ccc(OC)c(Nc2nc3c(ccc4c3ncn4C)s2)c1` [Example 71, N,N-Diethyl-4-methoxy-3-(6-methyl-6H-imidazo[4′,5′:3,4]-benzo[2,1-d]thiazol-2-ylamino)-benzenesulfonamide.HCl] are 1500 nM, 2000 nM and 1600 nM.
In the same order, the values of `CCOc1ccncc1Nc1nc2c(ccc3c2ncn3C)s1` [Example 156, N-(4-Ethoxypyridin-3-yl)-6-methyl-6H-imidazo[4′,5′:5,6]benzo[1,2-d]thiazol-2-amine.HCl] are 100 nM, 650 nM and 40 nM.
`COc1ccc(S(N)(=O)=O)cc1Nc1nc2c(ccc3c2cnn3C)s1` [Example 103, 4-Methoxy-3-(6-methyl-6H-3-thia-1,6,7-triaza-as-indacen-2-ylamino)-benzenesulfonamide.TFA] gave a half-maximal inhibitory concentration (IC50) in assay [1] of 380 nM. For the same compound, the Kd came to 750 nM in assay [2] and 370 nM in assay [3].
In the same order, the values of `CCn1c(C)nc2ccc3sc(Nc4cc(F)ccc4OC(C)C)nc3c21` [Example 139, (8-Ethyl-7-methyl-8H-imidazo[4′,5′:3,4]benzo[2,1-d]thiazol-2-yl)-(5-fluoro-2-isopropoxy-phenyl)-amine.TFA] are 330 nM, above 95000 nM and 960 nM.
The matching figures for `CC(C)Oc1ccc(C(N)=O)cc1Nc1nc2c(ccc3[nH]nnc32)s1` [Example 47, 4-Isopropoxy-3-(3H-thiazolo[4′,5′:3,4]benzo[1,2-d][1,2,3]triazol-7-ylamino)-benzamide.HCl]: 600 nM, 1000 nM and 1600 nM.
The matching figures for `COc1ccc(-c2cn[nH]c2)cc1Nc1nc2c(ccc3c2ncn3C)s1` [Example 70, [2-Methoxy-5-(1H-pyrazol-4-yl)-phenyl]-(6-methyl-6H-imidazo[4′,5%3,4]benzo[2,1-d]thiazol-2-yl)-amine.HCl]: 310 nM, 560 nM and 120 nM.
Compound `CC(C)Oc1ccc(C#N)cc1Nc1nc2c(ccc3c2ncn3C)s1` [Example 160, 4-isopropoxy-3-((6-methyl-6H-imidazo[4′,5′:5,6]benzo[1,2-d]thiazol-2-yl)amino)benzonitrile.HCl] yielded an IC50 in assay [1] of 160 nM. Moreover, the dissociation constant Kd in assay [2] came to 290 nM; in assay [3], 75 nM.
In the same order, the values of `COc1ccc(C#N)cc1Nc1nc2c(ccc3c2ncn3C)s1` [Example 67, 4-Methoxy-3-(6-methyl-6H-imidazo[4′,5′:3,4]benzo[2,1-d]thiazol-2-ylamino)-benzonitrile.HCl] are 100 nM, 87 nM and 77 nM.
Regarding `CC(C)Oc1ccc(S(N)(=O)=O)cc1Nc1nc2c(ccc3ncn(CC(F)(F)F)c32)s1` [Example 137, 4-Isopropoxy-3-[8-(2,2,2-trifluoro-ethyl)-8H-imidazo[4′,5′:3,4]-benzo[2,1-d]thiazol-2-ylamino]-benzenesulfonamide.TFA], in assay [1], the IC50 is 1100 nM. Also, the Kd in assay [2] amounted to 440 nM; in assay [3] it was 630 nM.
Take `CCn1c(C)nc2ccc3sc(Nc4cnccc4OC(C)C)nc3c21` [Example 159, 8-Ethyl-N-(4-isopropoxypyridin-3-yl)-7-methyl-8H-imidazo[4′,5′:5,6]benzo[1,2-d]thiazol-2-amine.HCl]: 66 nM corresponded to half-maximal inhibition in assay [1] (IC50). Also, the figures for the Kd in assay [2] and in assay [3] were 380 nM and 43 nM, respectively.
Compound `CC(C)Oc1ccc(S(N)(=O)=O)cc1Nc1nc2c(ccc3ncn(C)c32)s1` [Example 131, 4-Isopropoxy-3-(8-methyl-8H-imidazo[4′,5′:3,4]benzo[2,1-d]thiazol-2-ylamino)-benzenesulfonamide.TFA] gave an IC50 in assay [1] of 590 nM. Moreover, the Kd in assay [2] is above 95000 nM; in assay [3] it was 2000 nM.
In the same order, the values of `Cn1cnc2c3nc(Nc4cccnc4)sc3ccc21` [Example 75, (6-Methyl-6H-imidazo[4′,5′:3,4]-benzo[2,1-d]thiazol-2-yl)-pyridin-3-yl-amine.HCl] are around 18000 nM, above 95000 nM and 15000 nM.
In the same order, the values of `COc1ccc(S(=O)(=O)N2CCCC2)cc1Nc1nc2c(ccc3c2ncn3C)s1` [Example 72, [2-Methoxy-5-(pyrrolidine-1-sulfonyl)-phenyl]-(6-methyl-6H-imidazo[4′,5′:3,4]benzo[2,1-d]thiazol-2-yl)-amine.HCl] are 460 nM, 2100 nM and 1600 nM.
